Here are results for two compounds from paper PMC10539361, “Allosteric modulation of the fish taste receptor type 1 (T1R) family by the extracellular chloride ion” (Scientific Reports, 2023).

The test addresses T1, zfT1R2a/zfT1R3 (Danio rerio, UniProt A0A8M1N8F9+Q2MHK9).
T1 sequence (A0A8M1N8F9 26-825): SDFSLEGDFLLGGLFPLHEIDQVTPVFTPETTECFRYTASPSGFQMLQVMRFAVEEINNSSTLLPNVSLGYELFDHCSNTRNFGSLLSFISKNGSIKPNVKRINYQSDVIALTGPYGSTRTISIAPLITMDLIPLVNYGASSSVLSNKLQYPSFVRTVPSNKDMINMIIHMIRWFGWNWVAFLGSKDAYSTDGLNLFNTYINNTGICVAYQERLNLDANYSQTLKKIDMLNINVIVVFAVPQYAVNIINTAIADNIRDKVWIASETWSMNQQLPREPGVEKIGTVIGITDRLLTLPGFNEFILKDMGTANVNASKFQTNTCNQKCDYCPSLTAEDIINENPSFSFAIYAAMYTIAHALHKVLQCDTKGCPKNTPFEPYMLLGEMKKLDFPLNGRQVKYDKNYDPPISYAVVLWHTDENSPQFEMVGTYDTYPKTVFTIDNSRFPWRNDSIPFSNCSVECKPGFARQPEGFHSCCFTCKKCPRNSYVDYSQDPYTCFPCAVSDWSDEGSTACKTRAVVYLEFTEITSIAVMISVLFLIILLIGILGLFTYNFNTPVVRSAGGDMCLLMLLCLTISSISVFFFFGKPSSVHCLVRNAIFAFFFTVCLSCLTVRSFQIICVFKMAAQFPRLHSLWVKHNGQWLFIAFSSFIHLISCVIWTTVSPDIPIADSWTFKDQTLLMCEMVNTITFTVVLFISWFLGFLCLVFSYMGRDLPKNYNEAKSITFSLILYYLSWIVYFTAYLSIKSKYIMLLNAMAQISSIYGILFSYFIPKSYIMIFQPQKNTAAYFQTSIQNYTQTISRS
T1 sequence (Q2MHK9 25-850): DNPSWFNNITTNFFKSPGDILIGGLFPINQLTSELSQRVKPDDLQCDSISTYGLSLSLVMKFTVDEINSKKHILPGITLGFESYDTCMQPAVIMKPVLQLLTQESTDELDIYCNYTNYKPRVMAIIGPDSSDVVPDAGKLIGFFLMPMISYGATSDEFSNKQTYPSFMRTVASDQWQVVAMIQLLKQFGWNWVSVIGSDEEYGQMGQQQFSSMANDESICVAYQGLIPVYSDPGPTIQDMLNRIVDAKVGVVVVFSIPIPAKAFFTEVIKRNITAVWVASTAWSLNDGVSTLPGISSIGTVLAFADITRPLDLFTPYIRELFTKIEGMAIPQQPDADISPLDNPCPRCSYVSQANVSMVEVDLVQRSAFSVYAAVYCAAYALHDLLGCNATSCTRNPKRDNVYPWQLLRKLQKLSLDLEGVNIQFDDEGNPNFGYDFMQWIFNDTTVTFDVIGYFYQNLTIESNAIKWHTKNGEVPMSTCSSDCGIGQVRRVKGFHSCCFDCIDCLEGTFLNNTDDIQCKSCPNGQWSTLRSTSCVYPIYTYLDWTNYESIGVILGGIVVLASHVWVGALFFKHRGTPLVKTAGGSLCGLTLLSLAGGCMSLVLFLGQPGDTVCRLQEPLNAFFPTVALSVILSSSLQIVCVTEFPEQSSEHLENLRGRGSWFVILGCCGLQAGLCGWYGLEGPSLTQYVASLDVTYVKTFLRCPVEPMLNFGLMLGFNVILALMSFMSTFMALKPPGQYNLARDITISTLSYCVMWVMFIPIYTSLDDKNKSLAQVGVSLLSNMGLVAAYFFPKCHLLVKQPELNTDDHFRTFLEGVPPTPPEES
The test is described as follows: Effect of anions, cations and osmotic pressure on cellular responses, cells in 10 mM Cl- buffer, zfT1R2a/zfT1R3. The conditions noted are these: for response to fixed concentration of L-Pro on coapplication: coapplied with 160 µM L-Pro, final [Cl-]o up to 60 mM. In kind it is cell-based, zebrafish. As to the method: Cells were seeded in 96-well plates coated with ε-poly-L-lysine at approximately 70,000 cells per well. […] Fluorescence changes were monitored at 2 s intervals, as described above. […] Three independent experiments were conducted for each receptor, and representative results are shown as the mean ± SEM (n = 3 replicates). Statistical tests were conducted using KyPlot version 6.0 (KyensLab Inc., Tokyo, Japan). Statistical significance was set at p < 0.05.

Turning to `O=C([O-])[C@H](O)[C@@H](O)[C@H](O)[C@H](O)CO.[Na+]` [Na-gluconate, sodium gluconate], the “response to fixed concentration of L-Pro on coapplication” value is listed as “did not enhance”. For `[Cl-].[Na+]` [NaCl], the “response to fixed concentration of L-Pro on coapplication” value is “enhanced”. In addition, the “cellular response to the salt alone” value (without agonist) was “did not elicit”.
